Experiment [1] has as its target T1, PSD95 domain 1, 2, 3 (Homo sapiens, UniProt P78352).
T1 construct: the DNA portion cloned represents the PDZ domains and the cDNA portion located between individual domains; made in house; host or cells: E. coli (DH5alpha, BL21 or JM109)
In words: G assay PDZ-PL binding. Conditions: peptide 10 uM, protein 5. Here is the method:
(§1) (1) A PDZ-domain polypeptide is bound to a surface, e.g. a protein binding surface. In a preferred embodiment, a GST/PDZ fusion protein containing one or more PDZ domains is bound to a polystyrene 96-well plate. […] In one embodiment, the GST/PDZ fusion protein is bound via an anti-GST antibody that is coated onto the 96-well plate. Adequate binding to the plate can be achieved when: • a. 100 uL per well of 5 ug/mL goat anti-GST polyclonal antibody (Pierce) in PBS is added to a polystyrene 96-well plate (e.g., Num Polysorb) at 4° C. for 12 hours. • b. The plate is blocked by addition of 200 uL per well of PBS/BSA for 2 hours at 4° C. • c. The plate is washed 3 times with PBS. • d. 50 uL per well of 5 ug/mL GST/PDZ fusion protein) or, as a negative control, GST polypeptide alone (i.e. not a fusion protein) in PBS/BSA is added to the plate for 2 hours at 4° C. • e. The plate is again washed 3 times with PBS.
(§2) (2) Biotinylated PL peptides are allowed to react with the surface by addition of 50 uL per well of 20 uM solution of the biotinylated peptide in PBS/BSA for 10 minutes at 4° C., followed by an additional 20 minute incubation at 25° C.
(§3) (3) The binding of the biotinylated peptide to the GST/PDZ fusion protein surface can be detected using a variety of methods and detectors known to one of skill in the art. In one embodiment, 100 uL per well of 0.5 ug/mL streptavidin-horse radish peroxidase (HRP) conjugate dissolved in BSA/PBS is added and allowed to react for 20 minutes at 4° C. The plate is then washed 5 times with 50 mM Tris pH 8.0 containing 0.2% Tween 20, and developed by addition of 100 uL per well of HRP-substrate solution (TMB, Dako) for 20 minutes at room temperature (RT). The reaction of the HRP and its substrate is terminated by addition of 100 uL per well of 1M sulfuric acid, and the absorbance of each well of the plate is read at 450 nm.
(§4) (4) Specific binding of a PL peptide and a PDZ domain polypeptide is determined by comparing the signal from the well(s) in which the PL peptide and PDZ domain polypeptide are combined, with the background signal(s). The background signal is the signal found in the negative control(s). Typically a specific or selective reaction will be at least twice background signal, more typically more than 5 times background, and most typically 10 or more times the background signal. In addition, a statistically significant reaction will involve multiple measurements of the reaction with the signal and the background differing by at least two standard errors, more typically four standard errors, and most typically six or more standard errors. Correspondingly, a statistical test (e.g. a T-test) comparing repeated measurements of the signal with-repeated measurements of the background will result in a p-value<0.05, more typically a p-value<0.01, and most typically a p-value<0.001 or less. As noted, in an embodiment of the “G” assay, the signal from binding of a given PL peptide to immobilized (surface bound) GST polypeptide alone is one suitable negative control (sometimes referred to as “B 1”). Because all measurement are done in multiples (i.e. at least duplicate) the arithmetic mean (or, equivalently, average.) of several measurements is used in determining the binding, and the standard error of the mean is used in determining the probable error in the measurement of the binding. The standard error of the mean of N measurements equals the square root of the following: the sum of the squares of the difference between each measurement and the mean, divided by the product of (N) and (N−1). Thus, in one embodiment, specific binding of the PDZ protein to the platebound peptide is determined by comparing the mean signal (“mean S”) and standard error of the signal (“SE”) for a particular PL-PDZ combination with the mean B1. […]

Experiment [2] has as its target T2, PAR3 #278.1 domain 3 (Homo sapiens, UniProt Q8TEW0).
T2 construct: made in house; host or cells: E. coli (DH5alpha, BL21 or JM109)
As to the kind of experiment: G assay PDZ-PL binding. The conditions noted are these: peptide 10 uM, protein 5. As for the experimental part: as §1, §2, §3, §4

Where “and” joins values, the source holds several entries; their conditions need not be identical. Equal entries are not always repeated.

T1 sequence (P78352 62-395): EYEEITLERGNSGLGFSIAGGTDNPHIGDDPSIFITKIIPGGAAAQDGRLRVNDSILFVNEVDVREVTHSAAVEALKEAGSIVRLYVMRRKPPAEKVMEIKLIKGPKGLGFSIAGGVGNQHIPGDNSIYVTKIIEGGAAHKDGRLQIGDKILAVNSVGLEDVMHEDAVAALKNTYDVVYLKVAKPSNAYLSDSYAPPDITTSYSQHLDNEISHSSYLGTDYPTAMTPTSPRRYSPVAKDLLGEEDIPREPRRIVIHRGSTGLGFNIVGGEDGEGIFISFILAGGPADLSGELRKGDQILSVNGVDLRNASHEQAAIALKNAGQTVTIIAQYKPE
T2 sequence (Q8TEW0 579-681): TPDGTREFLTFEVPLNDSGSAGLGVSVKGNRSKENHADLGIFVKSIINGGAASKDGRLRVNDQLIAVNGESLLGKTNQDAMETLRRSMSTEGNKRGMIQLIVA

For “20 mer peptide corresponding to the C-terminus of HPV16 E6 (PDZ ligand), biotinylated in binding assays; ends SSRTRRETQL (SEQ ID NO: 13) [HPV E6 #16]”, the “Ave OD” value in experiment [1] (A450 nm) was 3.523 and 3.866; in experiment [2] (A450 nm) it was 0.352. Also, the “OD S/N” value is 22.58 and 19.67 in experiment [1] (vs GST only well); 1.80 in experiment [2] (vs GST only well).

Source of the values: patent publication US20100120700A1, “METHODS AND COMPOSITIONS FOR TREATING CERVICAL CANCER” (priority 2000, published 2010).
